For data set [1] the following is noted: human, in vivo.
Description: Controlled amount of boiled pasta was eaten after the 4 h time point. An initial blood sample (400 μl) was collected using a lancet at a fingertip into heparin tubes followed by samples at 1, 2, 3, 4, 5, 6, 7 and 8 hour after ingestion. Plasma was separated and immediately analysed for fatty acid composition.
The relative bioavailability of fatty acids from composition 2 compared to fish oil is calculated with the formula:
The AUC (calculates area under the curve for concentration vs. time data) is calculated using linear trapezoidal rule. […] The relative bioavailability of compound 1 and compound 5 is calculated with the same formula:
Data set [2] relates to A-549 human lung cancer cell line. As to the kind of experiment: in vitro cell viability assay (SRB), A-549. It counts as cell-based. Conditions: A549, A-549, at 294 μg/ml, 72 hours, read-out: growth inhibition. The procedure:
(§1) The cell viability assay is performed to measure the relative cell viability status of cancer cells upon exposure to test compounds in comparison to a positive control (etoposide) and a negative control (vehicule). Adherent cells growing in 96-well plates are exposed to test compounds for 3 days (72 hours). […] Test compounds (composition 1 comprising compounds 1, 5 and 6) as well as positive and negative controls were tested in parallel on the same culture plate. All conditions are tested in triplicate. […] Inhibition of 50% of cell growth compared to basal condition is the lower limit indicating a positive biological response (considered as a hit). After the incubation time, total protein content is quantified following staining with the anionic dye sulforhodamine B (SRB). The detection of […], is completed by a microplate reader. […] The amount of […] is directly proportional to the number of living cells in culture. […] Cells were trypsinized using 0.25% trypsine (w/v)/0.53 mM EDTA solution (Hyclone), counted and plated at densities between 1000 and 3000 cells per well in flat bottom 96-well clear plates (Becton Dickinson) in 100 μl of appropriate culture medium supplemented with fetal bovine serum (Hyclone). […] Absorbance was read at 515 nm using a 96-well plate Multiskan Spectrum […] (Thermo Electron Corporation). […]

Data set [3] has as its system PC-3 human prostate cancer cell line. The experiment in a line: in vitro cell viability assay (SRB), PC-3. It counts as cell-based. Conditions: PC-3, at 294 μg/ml, 72 hours, read-out: growth inhibition. The procedure:
as §1

In data set [4] the test system is HCT-15 human colon cancer cell line. As to the kind of experiment: in vitro cell viability assay (SRB), HCT-15. It counts as cell-based. Conditions: HCT-15, at 294 μg/ml, 72 hours, read-out: growth inhibition. The method, then: as §1
For data set [5], the system named is BT-549 human breast cancer cell line. As to the kind of experiment: in vitro cell viability assay (SRB), BT-549. The class given is cell-based. Conditions: BT-549, at 294 μg/ml, 72 hours, read-out: growth inhibition. The procedure:
as §1

The next data set deals with TNF-α. The experiment in a line: LPS-induced TNF-α release by THP-1 monocyte cells (ELISA). It counts as cell-based, human. Conditions: THP-1 cells, 100 ng/ml LPS, 4 hours; vehicle gives 400 pg/ml; composition 3 10 μg/ml, curcumin 5 μg/ml. The procedure: Composition 3 (comprising compounds 1 (11%) and 5 (89%)) at final concentration of 10 μg/ml, curcumin (5 μg/ml) and a 1:1 mixture of composition 3 (10 μg/ml) and curcumin (5 μg/ml) in DMSO (1%) was used for the in vitro assay. Composition 3 prepared according to the same procedure as previously described in Example 2)
The in vitro assay allows evaluation of the potential anti-inflammatory effects of compounds on the induced-release of pro-inflammatory mediator by monocyte cells. Typical human monocyte THP-1 cells, involved in inflammatory processes, are used in this assay. Measurement of pro-inflammatory mediator TNF-α is performed by ELISA (manufactured by R&D Systems) with artificial induction of pro-inflammatory agents by LPS (E. Coli O55:B5) during 4 hours. Known anti-inflammatory agent dexametazone was used as positive control.
In general terms: ELISA stands for enzyme-linked immunosorbent assay.

Experimental findings from US8119690B2, “Polyunsaturated fatty acid monoglycerides, derivatives, and uses thereof” (Centre de Recherche sur les Biotechnologies Marines, priority 2007, dated 2012) are described below.

Structures are written as SMILES.

For `CC/C=C\C/C=C\C/C=C\C/C=C\C/C=C\CCCCCC(=O)OCC(O)CO` (stereo not shown) [compound 1], the “relative bioavailability compared to compound 5” value in data set [1] is 2.20.

In general, inhibition refers to the relative decrease from the control value, in per cent. In the case of `COc1cc([C@@H]2c3cc4c(cc3[C@@H](O[C@@H]3O[C@@H]5CO[C@@H](C)O[C@H]5[C@H](O)[C@H]3O)[C@H]3COC(=O)[C@H]23)OCO4)cc(OC)c1O` [etoposide], the inhibition at 294 µg/mL in data set [2], in data set [3], in data set [4] and in data set [5] was 100% each time.

As to `C[C@@H]1C[C@H]2[C@@H]3CCC4=CC(=O)C=C[C@]4(C)[C@@]3(F)[C@@H](O)C[C@]2(C)[C@@]1(O)C(=O)CO` [dexametazone], the TNF-α measured in the data set on TNF-α stood at 125 pg/mL.

On to `COc1cc(/C=C/C(=O)CC(=O)/C=C/c2ccc(O)c(OC)c2)ccc1O` [curcumin], for which the TNF-α measured in the data set on TNF-α was found to be 100 pg/mL.
